Patent US12616671B2, “Use of rigosertib to treat RNA virus infections” (Icahn School of Medicine at Mount Sinai, priority 2020, dated 2026)

Key:
SARS-CoV-2 = assay: Inhibition of SARS-CoV-2 replication in Vero E6 cells (viral NP immunostaining, percent infection); conditions: for IC50: read-out: IC50 of inhibition of the replication of SARS-CoV-2, MOI 0.025, compound added 2 h before infection, 48 h incubation, NP immunostaining
Vero E6 cells = conditions: uninfected VeroE6 cells, MTT assay, same compound dilutions as viral replication assay

SMILES | IC50 (SARS-CoV-2) | effect on viral replication (SARS-CoV-2; SARS-CoV-2, negative control, data not shown) | effect on the viability of Vero E6 cells (Vero E6 cells) | fold more effective than Remdesivir (SARS-CoV-2 replication IC50) (SARS-CoV-2; ratio of IC50 values versus Remdesivir)
CCN(CCO)CCCC(C)Nc1ccnc2cc(Cl)ccc12 (stereo not drawn) [Hydroxy-Chloroquine] | 733 nM | – | – | –
CN1CCN(c2ccc(Nc3ncc4cc(C#N)c(=O)n(C5CCCC5)c4n3)cc2)CC1 [ON123300] | – | no effect | – | –
CCC(CC)COC(=O)[C@H](C)N[P@](=O)(OC[C@H]1O[C@@](C#N)(c2ccc3c(N)ncnn23)[C@H](O)[C@@H]1O)Oc1ccccc1 [Remdesivir] | 826 nM | – | – | –
COc1cc(OC)c(/C=C/S(=O)(=O)Cc2ccc(OC)c(NCC(=O)O)c2)c(OC)c1 [Rigosertib] | 16 nM | – | little or no effect | approximately 50 fold
